Activity calls are given as the source filed them. No cut-off for these calls is given here.
Tests used:
[1] = Inhibition of LPS-induced NF-kappaB activation in mouse RAW264.7 cells transfected with NF-kappaB luciferase reporter gene pretreated with compounds for 30 mins followed by LPS stimulation for 8 hrs by luciferase reporter gene assay; type: cell-based
Staphylococcus aureus = experiment: Antibacterial activity against Staphylococcus aureus assessed as inhibition of bacterial growth by broth microdilution method; type: functional, organism-based
DU-145 = experiment: Anticancer activity against human DU-145 cells assessed as reduction in cell viability by MTT assay; type: functional, cell-based
Pyricularia grisea = experiment: Antifungal activity against Magnaporthe grisea assessed as inhibition of fungal growth by broth microdilution method; type: functional, organism-based
Klebsiella pneumoniae = experiment: Antibacterial activity against Klebsiella pneumoniae assessed as inhibition of bacterial growth by broth microdilution method; type: functional, organism-based
CWR22R = experiment: Anticancer activity against human 22Rv1 cells assessed as reduction in cell viability by MTT assay; type: functional, cell-based
Candida albicans = experiment: Antifungal activity against Candida albicans Berkhout assessed as inhibition of fungal growth by broth microdilution method; type: functional, organism-based
LNCaP = experiment: Anticancer activity against human LNCaP cells assessed as reduction in cell viability by MTT assay; type: functional, cell-based
Sclerotinia sclerotiorum = experiment: Antifungal activity against Sclerotinia sclerotiorum Hanzawa assessed as inhibition of fungal growth by broth microdilution method; type: functional, organism-based
PC-3 = experiment: Anticancer activity against human PC-3 cells assessed as reduction in cell viability by MTT assay; type: functional, cell-based
[2] = test system: Colletotrichum gloeosporioides; experiment: Antifungal activity against Colletotrichum gloeosporioides assessed as inhibition of fungal growth by broth microdilution method; type: functional, organism-based
BMMC = experiment: Anti-osteoclastogenic activity in mouse BMMC assessed as inhibition of RANKL-induced osteoclast differentiation at 5 to 15 uM and measured after 3 days by TRAP staining inverted microscopic analysis; type: functional, cell-based; conditions: dose 5-15 µM, time 3.0 day

Row | Compound | IC50 [1] | Activity (Staphylococcus aureus) | Activity (DU-145) | Activity (Pyricularia grisea) | Activity (Klebsiella pneumoniae) | Activity (CWR22R) | Activity (Candida albicans) | Activity (LNCaP) | Activity (Sclerotinia sclerotiorum) | Activity (PC-3) | Activity [2] | Activity (BMMC)
1 | Cc1ccc(S(=O)(=O)/C=C/C#N)cc1 | 5 µM |  |  |  |  |  |  |  |  |  |  | 
2 | C[C@@H]1C[C@@H]2[C@H](O)[C@H](O)[C@H](C)[C@](O)(/C=C/C=C/C(=O)O)[C@H]2[C@H](C)C1 | 15.2 µM | inactive | inactive | inactive | inactive | inactive | inactive | inactive | inactive | inactive | inactive | 
3 | Cc1ccc2c(c1/C=C/C=C/C(=O)O)[C@H](C)C[C@@](C)(O)C2 | 18.6 µM | inactive | inactive | inactive | inactive | inactive | inactive | inactive | inactive | inactive | inactive | 
4 | C[C@@H]1C[C@H](C)[C@H](O)c2ccc(CO)c(/C=C/C=C/C(=O)O)c21 | 10.4 µM | inactive | inactive | inactive | inactive | inactive | inactive | inactive | inactive | inactive | inactive | Dose-Dependent Effect

From ChEMBL document CHEMBL5316335, “Tanzawaic Acid Derivatives from the Marine-Derived Penicillium steckii as Inhibitors of RANKL-Induced Osteoclastogenesis” (J Nat Prod, 2023)
